Measurements: US8049034B2, “Biphenyl compound selective agonists of gamma RAR receptors” (Galderma Research & Development, priority 2005, dated 2011)

Experiments:
Type in all cases: cell-based
RAR alpha = biological target: T1, RAR alpha (Homo sapiens, UniProt P10276); test: Transactivation test (luciferase reporter, HeLa stable transfectants), RAR alpha; conditions: apparent Kd from Schild regression, cross curves against reference antagonist, HeLa cells; read-out: RAR alpha Kdapp
T1 sequence (P10276 183-417 limits assumed): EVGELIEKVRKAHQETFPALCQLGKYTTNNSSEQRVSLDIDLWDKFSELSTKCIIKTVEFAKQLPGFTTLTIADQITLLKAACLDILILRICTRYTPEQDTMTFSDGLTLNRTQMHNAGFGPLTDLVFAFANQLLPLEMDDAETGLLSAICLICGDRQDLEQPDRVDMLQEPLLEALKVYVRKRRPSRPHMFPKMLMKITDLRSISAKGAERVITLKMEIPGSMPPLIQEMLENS
Description: (§1) The activation of the receptors by an agonist (activator) in HeLa cells results in the expression of a reporter gene, luciferase, which, in the presence of a substrate, generates light. It is thus possible to measure the activation of the receptors by quantifying the luminescence produced after incubation of the cells in the presence of a reference antagonist. The activating products displace the antagonist from its site, thus allowing activation of the receptor. The activity is measured by quantifying the increase in the light produced. This measurement makes it possible to determine the activator activity of the compound that can be used in the invention.
(§2) In this study, a constant which represents the affinity of the molecule for the receptor is determined. Since this value can fluctuate according to the basal activity and the expression of the receptor, it is designated apparent Kd (KdApp).
(§3) The test product is used at 10 concentrations and the reference antagonist at 7 concentrations. In each well (of a 96-well plate), the cells are in contact with one concentration of the test product and one concentration of the reference antagonist.
(§4) Measurements are also carried out for the total agonist control, otherwise known as 100% control (4-[2-(5,5,8,8-tetramethyl-5,6,7,8-tetrahydronaphthalen-2-yl)propenyl]benzoic acid), and the inverse agonist control, otherwise known as 0% control (4-{(E)-3-[4-(4-tert-butylphenyl)-5,5,8,8-tetramethyl-5,6,7,8-tetrahydronaphthalen-2-yl)]-3-oxopropenyl}benzoic acid).
(§5) In the case of an agonist, the AC50 is calculated by plotting the curve of the product at the concentration of the reference ligand giving 80% activation. The percentage activation which corresponds to the maximum level of activity obtained is also measured.
(§6) The HeLa cell lines used are stable transfectants containing the plasmids ERE-βGlob-Luc-SV-Neo (reporter gene) and RAR (α, β, γ) ER-DBO-puro. These cells are seeded into 96-well plates at a rate of 10 000 cells per well in 100 μl of DMEM medium without phenol red and supplemented with 10% defatted calf serum. The plates are then incubated at 37° C., 7% CO2 for 4 hours.
(§7) The various dilutions of the test product, of the reference ligand
(§8) (4-(5,5-dimethyl-8-p-tolyl-5,6-dihydronaphthalen-2-ylethynyl)benzoic acid), of the 100% control (100 nM 4-[2-(5,5,8,8-tetramethyl-5,6,7,8-tetrahydronaphthalen-2-yl)propenyl]benzoic acid) and of the 0% control (500 nM 4-{(E)-3-[4-(4-tert-butylphenyl)-5,5,8,8-tetramethyl-5,6,7,8-tetrahydronaphthalen-2-yl)]-3-oxopropenyl}benzoic acid) are added at a rate of 5 μl per well. The plates are then incubated for 18 hours at 37° C., 7% CO2.
(§9) The culture medium is removed by turning the plates over, and 100 μl of a 1:1 PBS (phosphate buffered solution)/luciferin mixture are added to each well. After 5 minutes, the plates are read using the luminescence reader.

RAR beta = biological target: T2, RAR beta (Homo sapiens, UniProt P10826); test: Transactivation test (luciferase reporter, HeLa stable transfectants), RAR beta; conditions: apparent Kd from Schild regression, cross curves against reference antagonist, HeLa cells; read-out: RAR beta Kdapp
T2 sequence (P10826 183-417 limits assumed): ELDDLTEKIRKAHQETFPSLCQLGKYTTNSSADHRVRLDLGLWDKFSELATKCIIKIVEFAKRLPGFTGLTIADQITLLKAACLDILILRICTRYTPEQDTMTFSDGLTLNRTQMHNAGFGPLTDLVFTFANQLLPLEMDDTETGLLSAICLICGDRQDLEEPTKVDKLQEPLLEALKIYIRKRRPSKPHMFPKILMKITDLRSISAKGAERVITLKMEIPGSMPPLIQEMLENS
Description: as §1, §2, §3, §4, §5, §6, §7, §8, §9

RAR gamma = biological target: T3, RAR gamma (Homo sapiens, UniProt P13631); test: Transactivation test (luciferase reporter, HeLa stable transfectants), RAR gamma; conditions: apparent Kd from Schild regression, cross curves against reference antagonist, HeLa cells; read-out: RAR gamma Kdapp
T3 construct: RAR gamma Kdapp
T3 sequence (P13631 185-419 limits assumed): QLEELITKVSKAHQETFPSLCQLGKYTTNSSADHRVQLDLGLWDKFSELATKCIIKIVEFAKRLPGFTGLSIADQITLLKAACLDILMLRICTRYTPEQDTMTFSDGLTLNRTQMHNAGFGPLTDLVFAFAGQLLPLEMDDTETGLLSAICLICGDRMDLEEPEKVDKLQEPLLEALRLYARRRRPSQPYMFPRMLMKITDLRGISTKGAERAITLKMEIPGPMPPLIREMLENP
Description: as §1, §2, §3, §4
In the case of an agonist, the AC50 is calculated by plotting the curve of the product at the concentration of the reference ligand giving 80% activation. The percentage activation which corresponds to the maximum level of activity obtained is also measured. […]
as §9

Row | Kd (RAR alpha) [nM] | Kd (RAR beta) [nM] | Kd (RAR gamma) [nM] | Compound
1 | 4 | 2 | 0.5 | COc1cc(C(=O)O)ccc1-c1ccc(-c2ccccc2)c(-c2ccc3c(c2)C(C)(C)CCC3(C)C)c1 [Example 44, 2″-Methoxy-2′-(5,5,8,8-tetramethyl-5,6,7,8-tetrahydronaphthalen-2-yl)-[1,1′:4,1″]-tert-phenyl-4″-carboxylic acid]
2 | 2 | 1 | 0.25 | Cc1cc(-c2ccc(-c3ccccc3)c(-c3ccc4c(c3)C(C)(C)CCC4(C)C)c2)ccc1C(=O)O [Example 41, 3″-Methyl-2′-(5,5,8,8-tetramethyl-5,6,7,8-tetrahydronaphthalen-2-yl)-[1,1′:4,1″]-tert-phenyl-4″-carboxylic acid]
3 | 2 | 1 | – | CC1(C)CCC(C)(C)c2cc(-c3cc(-c4ccc(C(=O)O)cc4)ccc3-c3ccccc3)ccc21 [Example 14, 2′-(5,5,8,8-Tetramethyl-5,6,7,8-tetrahydronaphthalen-2-yl)-[1,1′:4′,1″]-tert-phenyl-4″-carboxylic acid]
4 | 8 | 4 | – | CC1(C)CCC(C)(C)c2cc(-c3cc(-c4ccc(C(=O)O)cc4O)ccc3-c3ccccc3)ccc21 [Example 42, 2″-Hydroxy-2′-(5,5,8,8-tetramethyl-5,6,7,8-tetrahydronaphthalen-2-yl)-[1,1′:4,1″]-tert-phenyl-4″-carboxylic acid]
5 | 4 | 1 | – | CC1(C)CCC(C)(C)c2cc(-c3cc(-c4ccc(C(=O)O)cn4)ccc3-c3ccccc3)ccc21 [Example 47, 6-[2-(5,5,8,8-Tetramethyl-5,6,7,8-tetrahydronaphthalen-2-yl)biphenyl-4-yl]nicotinic acid]
6 | 2 | 1 | 0.25 | CC1(C)CCC(C)(C)c2cc(-c3cc(-c4ccc(C(=O)O)c(O)c4)ccc3-c3ccccc3)ccc21 [Example 46, 3″-Hydroxy-2′-(5,5,8,8-tetramethyl-5,6,7,8-tetrahydronaphthalen-2-yl)-[1,1′:4,1″]-tert-phenyl-4″-carboxylic acid]
